Reference: patent US9408406B2, “Food and beverage products containing 1,3-propanediol and methods of suppressing bitterness and enhancing sweetness in food and beverage products using 1,3-propanediol” (Kraft Foods Group Brands LLC, priority 2012, dated 2016)
“Also recorded” adds a separate entry of the source.

Columns and labels:
consumers [1] = assay: KCl bitterness sensitivity test (Example 3); assay type: in vivo, human
Excerpt: (§1) On day 1 of testing, consumers were given two samples, one a 0.25% KCl solution and the other water, and asked “Which beverage is more bitter?” This was replicated a total of three times to obtain four different trials. Order within the pair was rotated. Those who selected the KCl sample at least three times across the four trials were classified as “KCl sensitive.” Consumers then evaluated three more pairs of samples with varying levels of 1,3-propanediol with KCl versus a standard control (no 1,3-propanediol) as outlined in Table 3 below.
(§2) After the first day of testing, it was determined the number of KCl Bitterness Sensitive consumers may have been overstated. It was hypothesized that respondents could detect differences between plain water and water containing KCl, such as saltiness, but may not have been perceiving bitterness. Therefore, a second bitterness sensitivity test was conducted on day 2 using three pairs of a KCl solution (0.25%) versus a NaCl solution (0.15%) in an attempt to have the solutions iso-salty. Two new levels of Zemea were evaluated along with KCl versus a standard control as outlined in Table 3 below.

tasters [2] = assay: Paired taster test: which sample is more bitter, 0.25% KCl in water with or without 1,3-propanediol (Example 2); assay type: in vivo, human
Procedure: A 0.25% KCl in water solution was prepared and test samples were dosed with the appropriate amount of 1,3-propanediol according to Table 2 below. One ounce samples of each solution were prepared. The tasters received a pair (one blank and one dosed sample) and asked to rate which sample was more bitter. The scores in Table 2 are the number of tasters that chose that sample as being more bitter.

tasters [3] = assay: Taster evaluation with 1% citric acid (Example 9); assay type: in vivo, human; details: 1 weight percent citric acid in water; 0.3 weight percent propylene glycol (V), none (W) or 1,3-propanediol (X); four tasters
Procedure: Samples were prepared to evaluate the effect of including 1,3-propanediol with a higher concentration of citric acid than in Example 8. Sample V included 1 weight percent citric acid and 0.3 weight percent propylene glycol in water. Sample W included 1 weight percent citric acid in water. Sample X included 1 weight percent citric acid in water with 0.3 weight percent 1,3-propanediol. The samples were then evaluated by a team of four tasters.

tasters [4] = assay: Taster evaluation with earl grey tea (Example 11); assay type: in vivo, human; details: steeped earl grey tea; 0.3 weight percent 1,3-propanediol (AB), none (AC) or propylene glycol (AD); four tasters
Procedure: Samples were prepared to evaluate the effect of including 1,3-propanediol with tea. Six earl grey tea bags were combined with 250 ml of water for 30 minutes. Sample AB included 0.3 weight percent 1,3-propanediol in the steeped tea and Sample AD included 0.3 weight percent propylene glycol in the steeped tea. Sample AC was a tea only control. The samples were evaluated by a team of four tasters.

consumers [5] = assay: Paired consumer tasting of beverages with 0.05% Stevia SG95 with or without 1,3-propanediol (Example 1); assay type: in vivo, human
Procedure: Beverage samples were prepared to evaluate the effect of the level of 1,3-propanediol on Stevia. The beverages were prepared just prior to testing using water and the ingredients according to Table 1 below.
Four pairs of beverages were evaluated by consumers in one sitting. The order of evaluating the pairs of products was blocked so that the highest level of 1,3-propanediol (sample 4) was always served as the first pair of beverages along with its corresponding control. The order of evaluating the beverage samples within pairs was rotated. There was a timed five minute break between pairs. Water and unsalted crackers were used as a palate cleanser before tasting each beverage and between beverage pairs. The beverages were prepared at the facility prior to the onset of test using water along with the designated solutions.
The stevia used was SG95 from PureCircle. SG95 is a high purity combination (>95% steviol glycosides) of nine steviol glycosides. Reb A accounts for over half of the composition but also includes Rebaudioside D and Rebaudioside F. SG95 is 230 times sweeter than sugar.
The samples were tasted by consumers between 21-55 years of age who consume diet beverages at least once per month and are non-rejectors of flavored beverages. The consumers had no allergies or sensitivities to beverages or sweeteners, including artificial sweeteners.

panelists = assay: Panel assessment of Reb A beverage with or without 1,3-propanediol (Example 5); assay type: in vivo, human; details: Sample H versus Sample G
Procedure: Samples were prepared to analyze the effect of 1,3-propanediol with sweeteners such as Reb A. Samples G and H were prepared as shown in Table 5 below.
Nine panelists compared the samples. Panelists rinsed prior to tasting the samples and in between sample assessment with seltzer, unsalted crackers and water with a one-minute break between samples. Samples were assessed on the second sip. The results are shown below in Table 6 with the comments indicating the order of what was tasted in each of the samples (Scale: 0-15=None to Extreme).

consumers [6] = assay: Paired consumer tasting of beverages with 0.25% KCl with or without 1,3-propanediol (Example 3); assay type: in vivo, human
Procedure: Beverage samples were prepared to evaluate the effect of the level of 1,3-propanediol on KCl. The samples were tasted by consumers between 21-55 years of age with no allergies or sensitivities to food or beverages or ingredients.
as §1, §2
The order of evaluating the beverage samples within pairs were rotated (left/right). The order of evaluating the pairs of products was blocked so the highest level of 1,3-propanediol was always served as the first pair of beverages along with its control. There was a timed 5 minute break between pairs. Water and unsalted crackers were used as a palate cleanser before tasting each beverage and between beverage pairs.

tasters [7] = assay: Taster evaluation with Robusta instant coffee (Example 12); assay type: in vivo, human; details: 1 weight percent Robusta instant coffee in water; 0.3 weight percent propylene glycol (AE), none (AF) or 1,3-propanediol (AG)
Procedure: Samples were prepared to evaluate the effect of including 1,3-propanediol with coffee. Robusta instant coffee was prepared with 1 weight percent coffee in water. Sample AE included 0.3 weight percent propylene glycol in the prepared coffee. Sample AF was a coffee only control. Sample AG included 0.3 weight percent 1,3-propanediol in the prepared coffee.

tasters [8] = assay: Taster evaluation with malic acid (Example 10); assay type: in vivo, human; details: 1 weight percent malic acid in water; 0.3 weight percent 1,3-propanediol (Y), propylene glycol (Z) or none (AA)
Procedure: Samples were prepared to evaluate the effect of including 1,3-propanediol with malic acid. Sample Y included 1 weight percent malic acid with 0.3 weight percent 1,3-propanediol in water. Sample Z included 1 weight percent malic acid and 0.3 weight percent propylene glycol in water. Sample AA included 1 weight percent malic acid in water.

tasters [9] = assay: Triangle test for detecting 1,3-propanediol at low concentration (Example 4); assay type: in vivo, human; details: for tasters who could identify the 1,3-propanediol in a triangle test: four tasters
Procedure: Samples A-D were prepared according to Table 4 below to analyze and determine if 1,3-propanediol imparted any flavor when used at low concentrations. The samples were evaluated by a team of four tasters.
Samples A and B were compared.

tasters [10] = assay: Bitterness perception with potassium chloride, taster panel (Example 6); details: 0.3% KCl in water; 0.3% 1,3-propanediol, none or 0.3% propylene glycol; five tasters
tasters [11] = assay: Taster evaluation with acetic acid (Example 7); assay type: in vivo, human; details: 0.05 percent acetic acid in water; none, 0.3 percent 1,3-propanediol or 0.3 percent propylene glycol; three tasters
Procedure: Samples were prepared to evaluate the effect of inclusion of 1,3-propanediol with acetic acid. Sample M included 0.05 percent acetic acid in water, Sample N included 0.05 percent acetic acid in water with 0.3 percent 1,3-propanediol, and Sample O included 0.05 percent acetic acid in water with 0.3 percent propylene glycol. The samples were evaluated by a team of three tasters.

[12] = 0.000005 ppm 1,3-propanediol in 0.25% KCl in water
[13] = 0.00005 ppm 1,3-propanediol in 0.25% KCl in water
[14] = 0.005 ppm 1,3-propanediol in 0.25% KCl in water
[15] = 0.05 ppm 1,3-propanediol in 0.25% KCl in water
[16] = 0.5 ppm 1,3-propanediol in 0.25% KCl in water
[17] = 5 ppm 1,3-propanediol in 0.25% KCl in water
[18] = 50 ppm 1,3-propanediol in 0.25% KCl in water
[19] = 100 ppm 1,3-propanediol in 0.25% KCl in water
[20] = 500 ppm 1,3-propanediol in 0.25% KCl in water
[21] = 5000 ppm 1,3-propanediol in 0.25% KCl in water
[22] = first round, Pair 1: 0.0019 percent 1,3-propanediol with 0.05% Stevia SG95
[23] = first round, Pair 2: 0.0075 percent 1,3-propanediol with 0.05% Stevia SG95
[24] = second round, Pair 2: 0.000005 percent 1,3-propanediol with 0.05% Stevia SG95
[25] = second round, Pair 4: 0.0005 percent 1,3-propanediol with 0.05% Stevia SG95
[26] = about 0.0005% 1,3-propanediol with 0.25% KCl, consumers (general population), FIG. 4

[Cl-].[K+] [KCl, potassium chloride]
share of “KCl sensitive” consumers (consumers [1]; day 1: 0.25% KCl solution versus water): 67%
share of “KCl sensitive” consumers (consumers [1]; day 2: KCl solution (0.25%) versus NaCl solution (0.15%)): 53%

OCCCO [1,3-propanediol]
% of tasters that chose the control as more bittter (tasters [2]; [12]): 63%
number of tasters that chose the 1,3-Propanediol sample as being more bitter (tasters [2]; [12]): 3
% of tasters that chose the control as more bittter (tasters [2]; [13]): 63%
number of tasters that chose the 1,3-Propanediol sample as being more bitter (tasters [2]; [13]): 3
% of tasters that chose the control as more bittter (tasters [2]; 0.0005 ppm 1,3-propanediol in 0.25% KCl in water): 100%
% of tasters that chose the control as more bittter (tasters [2]; [14]): 50%
number of tasters that chose the 1,3-Propanediol sample as being more bitter (tasters [2]; [14]): 4
% of tasters that chose the control as more bittter (tasters [2]; [15]): 75%
number of tasters that chose the 1,3-Propanediol sample as being more bitter (tasters [2]; [15]): 2
% of tasters that chose the control as more bittter (tasters [2]; [16]): 63%
number of tasters that chose the 1,3-Propanediol sample as being more bitter (tasters [2]; [16]): 3
% of tasters that chose the control as more bittter (tasters [2]; [17]): 63%
number of tasters that chose the 1,3-Propanediol sample as being more bitter (tasters [2]; [17]): 3
% of tasters that chose the control as more bittter (tasters [2]; [18]): 75%
number of tasters that chose the 1,3-Propanediol sample as being more bitter (tasters [2]; [18]): 2
% of tasters that chose the control as more bittter (tasters [2]; [19]): 75%
number of tasters that chose the 1,3-Propanediol sample as being more bitter (tasters [2]; [19]): 2
% of tasters that chose the control as more bittter (tasters [2]; [20]): 75%
number of tasters that chose the 1,3-Propanediol sample as being more bitter (tasters [2]; [20]): 2
% of tasters that chose the control as more bittter (tasters [2]; [21]): 13%
number of tasters that chose the 1,3-Propanediol sample as being more bitter (tasters [2]; [21]): 7
taste of 1,3-propanediol itself (tasters [2]; 5000 ppm sample in 0.25% KCl in water): the bitterness of the 1,3-propanediol was apparent
sourness as indicated by the tasters (tasters [3]): increased sourness perception when combined with citric acid
other flavor notes / flavor profile as indicated by the tasters (tasters [4]): sour, bitter, and astringent characteristics all changed
Stevia bitterness versus control (consumers [5]; [22]): significantly less Stevia bitterness
more mouth drying, longer lasting aftertaste and sweetness versus control (consumers [5]; [22]): Neither the control nor the experimental sample of Pair 1 demonstrated significantly
sweetness versus control (consumers [5]; [22]): fell short on being sweeter than control
all other attributes versus control (consumers [5]; [23]): selected about equally
mouth drying versus control (consumers [5]; [23]): significantly more “mouth drying”
attributes versus control (consumers [5]; first round, Pair 3: 0.0150 percent 1,3-propanediol with 0.05% Stevia SG95): no statistical differences in attributes
attributes versus control (consumers [5]; first round, Pair 4: 0.03 percent 1,3-propanediol (text; Table 1 prints 0.3%) with 0.05% Stevia SG95): no statistical differences in attributes
bitterness versus control (consumers [5]; first round, Pair 4 level of 1,3-propanediol with 0.05% Stevia SG95): numerically more bitterness
attributes versus control (consumers [5]; second round, Pair 1: 0.0000005 percent 1,3-propanediol with 0.05% Stevia SG95): no statistical differences in attributes
aftertaste compared to control (consumers [5]; [24]): significantly longer lasting aftertaste
all other attributes versus control (consumers [5]; [24]): selected about equally
attributes versus control (consumers [5]; second round, Pair 3: 0.00005 percent 1,3-propanediol with 0.05% Stevia SG95): no statistical differences in attributes
bitterness compared to control (consumers [5]; [25]): significantly less bitterness
sweetness compared to control (consumers [5]; [25]): more sweetness; also recorded: significantly sweeter versus control
effect on flavor profile with Reb A (panelists): general shift in bitter and sour flavor profiles
sweetness, statistical significance (consumers [6]; 0.0005 percent 1,3-propanediol with 0.25% KCl, non-KCl sensitive consumers): statistically significant increase in sweetness
reduced bitterness and increased sweetness (consumers [6]; about 0.0005% 1,3-propanediol with 0.25% KCl, KCl sensitive consumers, FIG. 5): also found in the KCl sensitive consumers (FIG. 5), although to a less dramatic extent
bitterness (consumers [6]; [26]): reduced bitterness
sweetness (consumers [6]; [26]): increased sweetness
bitterness as indicated by the tasters (tasters [7]): less bitter than without 1,3-propanediol
sourness as indicated by the tasters (tasters [8]): more sour upfront but less lingering
tasters who could identify the 1,3-propanediol in a triangle test (tasters [9]; Samples A and B: 0.14% 1,3-propanediol in water): one
tasters who could identify the 1,3-propanediol in a triangle test (tasters [9]; Samples C and D: 0.14% 1,3-propanediol in water with 10% sucrose): one
detectability at low levels (tasters [9]; water or sucrose sweetened beverages): generally not detectable at low levels
bitterness as indicated by the tasters (tasters [10]): functioned to suppress bitterness when used with potassium chloride
sourness as indicated by the tasters (tasters [11]): increases the sourness compared to water when combined with acetic acid
